# In patent US20120121591A1 (priority 2009, published 2012):
# pIC50: −log10 of the molar value. Like-named read-outs stand apart in the source and are kept apart here.
# What was measured:
# [1] = tested on: IL-2 secretion from T cells in human whole blood; type: cell-based; conditions: for IC50: read-out: WB (IL-2) IC50 (nM, Avg)
# [2] = tested on: IFN-g secretion from T cells in human whole blood; type: cell-based; conditions: for IC50: read-out: WB (IFNg) IC50 (nM, Avg)
SMILES,IC50 [1] [nM],IC50 [2] [nM],pIC50 ([1]; read-out: WB (IL-2) IC50),pIC50 ([2]; read-out: WB (IFNg) IC50)
CC[C@H](C)[C@@H]1NC(=O)[C@@H](NC(=O)[C@H](CO)NC(=O)[C@@H](N)CCCNC(=N)N)CSSC[C@@H](C(=O)O)NC(=O)[C@H]([C@@H](C)O)NC(=O)CNC(=O)[C@@H]2CSSC[C@@H]3NC(=O)[C@H](C)NC(=O)[C@H](Cc4ccccc4)NC(=O)[C@H](C)NC(=O)[C@H]([C@@H](C)O)NC(=O)[C@H](CSSC[C@H](NC(=O)[C@H](Cc4ccccc4)NC(=O)[C@H](CO)NC(=O)[C@H](CC(C)C)NC(=O)[C@H](CCCNC(=N)N)NC(=O)[C@H](Cc4ccc(O)cc4)NC(=O)[C@H](CCCCN)NC(=O)[C@H](CCSC)NC(=O)[C@H](CO)NC(=O)[C@H](Cc4c[nH]cn4)NC(=O)[C@H](CCCCN)NC3=O)C(=O)N[C@@H](CCCNC(=N)N)C(=O)N[C@@H](CCCCN)C(=O)N[C@@H]([C@@H](C)O)C(=O)N2)NC(=O)[C@H](CCCNC(=N)N)NC(=O)[C@H](CO)NC(=O)[C@H](CCCCN)NC(=O)[C@@H]2CCCN2C(=O)[C@H]([C@@H](C)CC)NC(=O)[C@H]([C@@H](C)O)NC(=O)[C@H](CC(=O)O)NC1=O [[Ala16]ShK],0.058,0.078,,
CC[C@H](C)[C@@H]1NC(=O)[C@H]([C@@H](C)O)NC(=O)[C@H](CC(=O)O)NC(=O)[C@H](CCCNC(=N)N)NC(=O)[C@@H](NC(=O)[C@H](CO)NC(=O)[C@@H](N)CCCNC(=N)N)CSSC[C@@H](C(=O)O)NC(=O)[C@H]([C@@H](C)O)NC(=O)CNC(=O)[C@@H]2CSSC[C@@H]3NC(=O)[C@H](CCC(N)=O)NC(=O)[C@H](Cc4ccccc4)NC(=O)[C@H](C)NC(=O)[C@H]([C@@H](C)O)NC(=O)[C@H](CSSC[C@H](NC(=O)[C@H](Cc4ccccc4)NC(=O)[C@H](CO)NC(=O)[C@H](CC(C)C)NC(=O)[C@H](CCCNC(=N)N)NC(=O)[C@H](Cc4ccc(O)cc4)NC(=O)[C@H](CCCCN)NC(=O)[C@H](CCSC)NC(=O)[C@H](CO)NC(=O)[C@H](Cc4c[nH]cn4)NC(=O)[C@H](CCCCN)NC3=O)C(=O)N[C@@H](CCCNC(=N)N)C(=O)N[C@@H](CCCCN)C(=O)N[C@@H]([C@@H](C)O)C(=O)N2)NC(=O)[C@H](CCCNC(=N)N)NC(=O)[C@H](CO)NC(=O)[C@H](CCCCN)NC(=O)[C@@H]2CCCN2C1=O [[Arg4]ShK],0.051,0.081,,
CC[C@H](C)[C@@H]1NC(=O)[C@@H](NC(=O)[C@H](CO)NC(=O)[C@@H](N)CCCNC(=N)N)CSSC[C@@H](C(=O)O)NC(=O)[C@H]([C@@H](C)O)NC(=O)CNC(=O)[C@@H]2CSSC[C@@H]3NC(=O)[C@H](CCC(N)=O)NC(=O)[C@H](Cc4ccccc4)NC(=O)[C@H](C)NC(=O)[C@H]([C@@H](C)O)NC(=O)[C@H](CSSC[C@H](NC(=O)[C@H](Cc4ccccc4)NC(=O)[C@H](CO)NC(=O)[C@H](CC(C)C)NC(=O)[C@H](CCCNC(=N)N)NC(=O)[C@H](Cc4ccc(O)cc4)NC(=O)[C@H](CCCCN)NC(=O)[C@H](CCSC)NC(=O)[C@H](CO)NC(=O)[C@H](Cc4c[nH]cn4)NC(=O)[C@H](CCCCN)NC3=O)C(=O)N[C@@H](CCCNC(=N)N)C(=O)N[C@@H](CCCCN)C(=O)N[C@@H]([C@@H](C)O)C(=O)N2)NC(=O)[C@H](C)NC(=O)[C@H](CO)NC(=O)[C@H](CCCCN)NC(=O)[C@@H]2CCCN2C(=O)[C@H]([C@@H](C)CC)NC(=O)[C@H]([C@@H](C)O)NC(=O)[C@H](CC(=O)O)NC1=O [[Ala11]ShK],1.24,1.9,,
"CCCC[C@@H]1NC(=O)[C@H](CO)NC(=O)[C@H](Cc2c[nH]cn2)NC(=O)[C@H](CCC(=O)O)NC(=O)[C@@H]2CSSC[C@@H]3NC(=O)[C@H]([C@@H](C)O)NC(=O)[C@H](CCCNC(=N)N)NC(=O)[C@H](CCCNC(=N)N)NC(=O)[C@H](CSSC[C@H](NC(=O)[C@H](CCCNC(=N)N)NC(=O)[C@H](CO)NC(=O)[C@H](CCCCN)NC(=O)[C@@H]4CCCN4C(=O)[C@H]([C@@H](C)CC)NC(=O)[C@H]([C@@H](C)O)NC(=O)[C@H](CC(=O)O)NC(=O)[C@H](CCC(=O)O)NC(=O)[C@@H](NC(=O)[C@H](CO)NC(=O)[C@@H](N)CCCNC(=N)N)CSSC[C@@H](C(N)=O)NC(=O)[C@H]([C@@H](C)O)NC(=O)CNC3=O)C(=O)N[C@@H]([C@@H](C)O)C(=O)N[C@@H](C)C(=O)N[C@@H](Cc3ccccc3)C(=O)N[C@@H](CCCCN)C(=O)N2)NC(=O)[C@H](Cc2ccccc2)NC(=O)[C@H](CO)NC(=O)[C@H](CC(C)C)NC(=O)[C@H](CCCNC(=N)N)NC(=O)[C@H](Cc2ccc(O)cc2)NC(=O)[C@H](CCCCN)NC1=O [[Glu4,18, Lys16,Nle21, Arg30]ShK-amide]",0.97,1.99,,
CC[C@H](C)[C@@H]1NC(=O)[C@@H](NC(=O)[C@H](CO)NC(=O)[C@@H](N)CCCNC(=N)N)CSSC[C@@H](C(=O)O)NC(=O)[C@H]([C@@H](C)O)NC(=O)CNC(=O)[C@@H]2CSSC[C@@H]3NC(=O)[C@H](CCC(N)=O)NC(=O)[C@H](Cc4ccccc4)NC(=O)[C@H](C)NC(=O)[C@H]([C@@H](C)O)NC(=O)[C@H](CSSC[C@H](NC(=O)[C@H](Cc4ccccc4)NC(=O)[C@H](CO)NC(=O)[C@H](CC(C)C)NC(=O)[C@H](CCCNC(=N)N)NC(=O)[C@H](Cc4ccc(O)cc4)NC(=O)[C@H](CCCCN)NC(=O)[C@H](CCSC)NC(=O)[C@H](CO)NC(=O)[C@H](Cc4c[nH]cn4)NC(=O)[C@H](CCCCN)NC3=O)C(=O)N[C@@H](CCCNC(=N)N)C(=O)N[C@@H](Cc3cccc4ccccc34)C(=O)N[C@@H]([C@@H](C)O)C(=O)N2)NC(=O)[C@H](CCCNC(=N)N)NC(=O)[C@H](CO)NC(=O)[C@H](CCCCN)NC(=O)[C@@H]2CCCN2C(=O)[C@H]([C@@H](C)CC)NC(=O)[C@H]([C@@H](C)O)NC(=O)[C@H](CC(=O)O)NC1=O [[1-Nal30]ShK],0.082,0.148,,
CC[C@H](C)[C@@H]1NC(=O)[C@@H](NC(=O)[C@H](CO)NC(=O)[C@@H](N)CCCNC(=N)N)CSSC[C@@H](C(=O)O)NC(=O)[C@H]([C@@H](C)O)NC(=O)CNC(=O)[C@@H]2CSSC[C@@H]3NC(=O)[C@H](CCC(N)=O)NC(=O)[C@H](Cc4ccccc4)NC(=O)[C@H](C)NC(=O)[C@H](Cc4cccc5ccccc45)NC(=O)[C@H](CSSC[C@H](NC(=O)[C@H](Cc4ccccc4)NC(=O)[C@H](CO)NC(=O)[C@H](CC(C)C)NC(=O)[C@H](CCCNC(=N)N)NC(=O)[C@H](Cc4ccc(O)cc4)NC(=O)[C@H](CCCCN)NC(=O)[C@H](CCSC)NC(=O)[C@H](CO)NC(=O)[C@H](Cc4c[nH]cn4)NC(=O)[C@H](CCCCN)NC3=O)C(=O)N[C@@H](CCCNC(=N)N)C(=O)N[C@@H](CCCCN)C(=O)N[C@@H]([C@@H](C)O)C(=O)N2)NC(=O)[C@H](CCCNC(=N)N)NC(=O)[C@H](CO)NC(=O)[C@H](CCCCN)NC(=O)[C@@H]2CCCN2C(=O)[C@H]([C@@H](C)CC)NC(=O)[C@H]([C@@H](C)O)NC(=O)[C@H](CC(=O)O)NC1=O [[1-Nal13]ShK],3.56,4.86,,
"CC[C@H](C)[C@@H]1NC(=O)[C@@H](NC(=O)[C@H](CO)NC(=O)[C@@H](N)CCCNC(=N)N)CSSC[C@@H](C(=O)O)NC(=O)[C@H]([C@@H](C)O)NC(=O)CNC(=O)[C@@H]2CSSC[C@@H]3NC(=O)[C@H](CCCCN)NC(=O)[C@H](Cc4ccccc4)NC(=O)[C@H](C)NC(=O)[C@H]([C@@H](C)O)NC(=O)[C@H](CSSC[C@H](NC(=O)[C@H](Cc4cccc5ccccc45)NC(=O)[C@H](CO)NC(=O)[C@H](CC(C)C)NC(=O)[C@H](CCCNC(=N)N)NC(=O)[C@H](Cc4ccc(O)cc4)NC(=O)[C@H](CCCCN)NC(=O)[C@H](CCSC)NC(=O)[C@H](CO)NC(=O)[C@H](Cc4c[nH]cn4)NC(=O)[C@H](CCCCN)NC3=O)C(=O)N[C@@H](CCCCN)C(=O)N[C@@H](CCCNC(=N)N)C(=O)N[C@@H]([C@@H](C)O)C(=O)N2)NC(=O)[C@H](CCCNC(=N)N)NC(=O)[C@H](CO)NC(=O)[C@H](CCCCN)NC(=O)[C@@H]2CCCN2C(=O)[C@H]([C@@H](C)CC)NC(=O)[C@H]([C@@H](C)O)NC(=O)[C@H](CC(=O)O)NC1=O [[Lys16,29; 1-Na127;Arg30]ShK]",3.37,3.83,,
CC[C@H](C)[C@@H]1NC(=O)[C@@H](NC(=O)[C@H](CO)NC(=O)[C@@H](N)CCCNC(=N)N)CSSC[C@@H](C(=O)O)NC(=O)[C@H](CCCNC(=N)N)NC(=O)CNC(=O)[C@@H]2CSSC[C@@H]3NC(=O)[C@H](CCC(N)=O)NC(=O)[C@H](Cc4ccccc4)NC(=O)[C@H](C)NC(=O)[C@H]([C@@H](C)O)NC(=O)[C@H](CSSC[C@H](NC(=O)[C@H](Cc4ccccc4)NC(=O)[C@H](CO)NC(=O)[C@H](CC(C)C)NC(=O)[C@H](CCCNC(=N)N)NC(=O)[C@H](Cc4ccc(O)cc4)NC(=O)[C@H](CCCCN)NC(=O)[C@H](CCSC)NC(=O)[C@H](CO)NC(=O)[C@H](Cc4c[nH]cn4)NC(=O)[C@H](CCCCN)NC3=O)C(=O)N[C@@H](CCCNC(=N)N)C(=O)N[C@@H](CCCCN)C(=O)N[C@@H]([C@@H](C)O)C(=O)N2)NC(=O)[C@H](CCCNC(=N)N)NC(=O)[C@H](CO)NC(=O)[C@H](CCCCN)NC(=O)[C@@H]2CCCN2C(=O)[C@H]([C@@H](C)CC)NC(=O)[C@H]([C@@H](C)O)NC(=O)[C@H](CC(=O)O)NC1=O [[Arg34]ShK],0.418,0.486,,
"CC[C@H](C)[C@@H]1NC(=O)[C@@H](NC(=O)[C@H](CO)NC(=O)[C@@H](N)CCCNC(=N)N)CSSC[C@@H](C(=O)O)NC(=O)[C@H]([C@@H](C)O)NC(=O)CNC(=O)[C@@H]2CSSC[C@@H]3NC(=O)[C@H](CCC(N)=O)NC(=O)[C@H](Cc4ccccc4)NC(=O)[C@H](C)NC(=O)[C@H]([C@@H](C)O)NC(=O)[C@H](CSSC[C@H](NC(=O)[C@H](Cc4ccccc4)NC(=O)[C@H](CO)NC(=O)[C@H](CC(C)C)NC(=O)[C@H](CCCNC(=N)N)NC(=O)[C@H](Cc4ccc(O)cc4)NC(=O)[C@H](CCCCN)NC(=O)[C@H](CCSC)NC(=O)[C@H](CO)NC(=O)[C@H](Cc4c[nH]cn4)NC(=O)[C@H](CCCCN)NC3=O)C(=O)N[C@@H](CCCNC(=N)N)C(=O)N[C@@H](CCCCN)C(=O)N[C@@H]([C@@H](C)O)C(=O)N2)NC(=O)[C@H](CCCNC(=N)N)NC(=O)[C@H](CO)NC(=O)[C@H](CCCCN)NC(=O)[C@@H]2CCCN2C(=O)[C@H]([C@@H](C)CC)NC(=O)[C@H]([C@@H](C)O)NC(=O)[C@H](CC(=O)O)NC1=O [ShK(1-35), reference compound]",0.043,0.052,10.17,10.11
